Test results taken from ChEMBL document CHEMBL5331095, “Structure-activity relationship and biological evaluation of xanthine derivatives as PCSK9 inhibitors for the treatment of atherosclerosis” (Eur J Med Chem, 2023).
Active and inactive are the calls of the source. The rule behind the calls is not given here.

Assays:
[1] = target: Proprotein convertase subtilisin/kexin type 9 (Homo sapiens) (UniProt Q8NBP7); test: Inhibition of PCSK9 transcriptional activity in human HepG2 cells stably expressing luciferase reporter plasmid containing PCSK9 promoter assessed as decrease in luciferase activity at 10 ug/ml incubated for 24 hrs by Luciferase assay relative to control; type: cell-based; conditions: dose 10.0 µg/ml
[2] = target: Proprotein convertase subtilisin/kexin type 9 (Homo sapiens) (UniProt Q8NBP7); test: Inhibition of PCSK9 transcriptional activity in human HepG2 cells transfected with luciferase reporter plasmid containing truncated D5 (-392 to -1 base pairs) human PCSK9 promoter region assessed as decrease in luciferase activity incubated for 24 hrs by Luciferase assay; type: cell-based
Mus musculus [3] = test: Antiatherosclerotic activity in high-fat diet fed ApoE knockout C57BL/6 mouse assessed as decrease in serum triglyceride level at 30 mg/kg, IG for 8 weeks by lipid profiling assay; type: functional, organism-based
[4] = Acute toxicity in C57BL/6 mouse assessed as behavioral change upto 1000 mg/kg, IG and measured every day for 1 week; type: organism-based; conditions: in vivo, po, 168 h, time 1 weeks
Mus musculus [5] = test: In vivo inhibition of PCSK9 in high-fat diet fed ApoE knockout C57BL/6 mouse assessed as decrease in PCSK9 expression in liver at 30 mg/kg, IG for 8 weeks by Western blot analysis; type: functional, organism-based
Mus musculus [6] = test: In vivo inhibition of PCSK9 in high-fat diet fed ApoE knockout C57BL/6 mouse assessed as decrease in PCSK9 expression in serum at 30 mg/kg, IG for 8 weeks by ELISA; type: functional, organism-based
Mus musculus [7] = test: Antiatherosclerotic activity in high-fat diet fed ApoE knockout C57BL/6 mouse assessed as decrease in LDL cholesterol level at 30 mg/kg, IG for 8 weeks by FPLC analysis; type: functional, organism-based
Mus musculus [8] = test: Antiatherosclerotic activity in high-fat diet fed ApoE knockout C57BL/6 mouse assessed as reduction in atherosclerotic plaque size in aortae en face root at 30 mg/kg, IG for 8 weeks by Oil Red O staining based imaging analysis; type: functional, organism-based
[9] = Cytotoxicity against human HepG2 cells assessed as reduction in cell viability by measuring toxic concentration incubated for 24 hrs by MTT assay; type: toxicity, cell-based; conditions: read-out: TC50
[10] = target: Proprotein convertase subtilisin/kexin type 9 (Homo sapiens) (UniProt Q8NBP7); test: Inhibition of PCSK9 transcriptional activity in human HepG2 cells transfected with luciferase reporter plasmid containing truncated D4 (-440 to -1 base pairs) human PCSK9 promoter region assessed as decrease in luciferase activity incubated for 24 hrs by Luciferase assay; type: cell-based
[11] = target: Proprotein convertase subtilisin/kexin type 9 (Homo sapiens) (UniProt Q8NBP7); test: Inhibition of PCSK9 transcriptional activity in human HepG2 cells transfected with luciferase reporter plasmid containing truncated D6 (-351 to -1 base pairs) human PCSK9 promoter region assessed as decrease in luciferase activity incubated for 24 hrs by Luciferase assay; type: cell-based
[12] = target: Proprotein convertase subtilisin/kexin type 9 (Homo sapiens) (UniProt Q8NBP7); test: Inhibition of PCSK9 in human HepG2 cells assessed as increase in LDLR protein expression level at 2.5 to 25 uM incubated for 24 hrs by Western blot analysis; type: cell-based; conditions: dose 2.5-25 µM
[13] = target: Proprotein convertase subtilisin/kexin type 9 (Homo sapiens) (UniProt Q8NBP7); test: Inhibition of PCSK9 transcriptional activity in human HepG2 cells transfected with luciferase reporter plasmid containing truncated D7 (-335 to -1 base pairs) human PCSK9 promoter region assessed as decrease in luciferase activity incubated for 24 hrs by Luciferase assay; type: cell-based
[14] = Acute toxicity in C57BL/6 mouse assessed as survival upto 1000 mg/kg, IG and measured every day for 1 week; type: organism-based; conditions: in vivo, po, 168 h, time 1 weeks
[15] = target: Proprotein convertase subtilisin/kexin type 9 (Homo sapiens) (UniProt Q8NBP7); test: Inhibition of PCSK9 transcriptional activity in human HepG2 cells transfected with luciferase reporter plasmid containing truncated D3 (-709 to -1 base pairs) human PCSK9 promoter region assessed as decrease in luciferase activity incubated for 24 hrs by Luciferase assay; type: cell-based
[16] = Acute toxicity in C57BL/6 mouse assessed as body weight change upto 1000 mg/kg, IG and measured every day for 1 week; type: organism-based; conditions: in vivo, po, 168 h, time 1 weeks
[17] = target: Proprotein convertase subtilisin/kexin type 9 (Homo sapiens) (UniProt Q8NBP7); test: Inhibition of PCSK9 transcriptional activity in human HepG2 cells transfected with luciferase reporter plasmid containing truncated D1 (-1711 to -1 base pairs) human PCSK9 promoter region assessed as decrease in luciferase activity incubated for 24 hrs by Luciferase assay; type: cell-based
[18] = target: Proprotein convertase subtilisin/kexin type 9 (Homo sapiens) (UniProt Q8NBP7); test: Inhibition of PCSK9 transcriptional activity in human HepG2 cells transfected with luciferase reporter plasmid containing truncated D2 (-1214 to -1 base pairs) human PCSK9 promoter region assessed as decrease in luciferase activity incubated for 24 hrs by Luciferase assay; type: cell-based
[19] = target: Proprotein convertase subtilisin/kexin type 9 (Homo sapiens) (UniProt Q8NBP7); test: Inhibition of PCSK9 in human HepG2 cells assessed as increase in LDL-cholesterol cellular uptake by measuring DiI fluorescence at 2.5 to 25 uM incubated for 24 hrs by Dil-LDL staining based flow cytometry analysis; type: cell-based; conditions: dose 2.5-25 µM
Mus musculus [20] = test: Antiatherosclerotic activity in high-fat diet fed ApoE knockout C57BL/6 mouse assessed as decrease in VLDL fraction cholesterol level at 30 mg/kg, IG for 8 weeks by FPLC analysis; type: functional, organism-based
[21] = target: Proprotein convertase subtilisin/kexin type 9 (Homo sapiens) (UniProt Q8NBP7); test: Inhibition of PCSK9 in human HepG2 cells assessed as fold increase in LDL-cholesterol cellular uptake by measuring DiI fluorescence at 25 uM incubated for 24 hrs by Dil-LDL staining based flow cytometry analysis relative to control; type: cell-based
Mus musculus [22] = test: Antiatherosclerotic activity in high-fat diet fed ApoE knockout C57BL/6 mouse assessed as reduction in atherosclerotic plaque size in aortic root at 30 mg/kg, IG for 8 weeks by Oil Red O staining based imaging analysis; type: functional, organism-based
[23] = tested on: PCSK9 transcriptional activity; test: Therapeutic index, ratio of TC50 for cytotoxicity against human HepG2 cells to IC50 for inhibition of PCSK9 transcriptional activity in human HepG2 cells stably expressing luciferase reporter plasmid containing PCSK9 promoter; type: toxicity, cell-based
Mus musculus [24] = test: Antiatherosclerotic activity in high-fat diet fed ApoE knockout C57BL/6 mouse assessed as decrease in high-fat diet induced increase in body weight at 30 mg/kg, IG for 8 weeks; type: functional, organism-based
[25] = target: Proprotein convertase subtilisin/kexin type 9 (Homo sapiens) (UniProt Q8NBP7); test: Inhibition of PCSK9 in human HepG2 cells assessed as decrease in PCSK9 protein expression level at 2.5 to 25 uM incubated for 24 hrs by Western blot analysis; type: cell-based; conditions: dose 2.5-25 µM
Mus musculus [26] = test: Antiatherosclerotic activity in high-fat diet fed ApoE knockout C57BL/6 mouse assessed as decrease in serum total cholesterol level at 30 mg/kg, IG for 8 weeks by lipid profiling assay; type: functional, organism-based
[27] = Acute toxicity in C57BL/6 mouse assessed as lethality upto 1000 mg/kg, IG and measured every day for 1 week; type: organism-based; conditions: in vivo, po, time 1 weeks

Sequence of Proprotein convertase subtilisin/kexin type 9 (Homo sapiens) (Q8NBP7 31-152 limits assumed): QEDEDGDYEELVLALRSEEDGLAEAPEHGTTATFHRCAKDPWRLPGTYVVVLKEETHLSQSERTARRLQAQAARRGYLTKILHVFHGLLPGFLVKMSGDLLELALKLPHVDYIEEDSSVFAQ
Sequence of Proprotein convertase subtilisin/kexin type 9 (Homo sapiens) (Q8NBP7 153-692 limits assumed): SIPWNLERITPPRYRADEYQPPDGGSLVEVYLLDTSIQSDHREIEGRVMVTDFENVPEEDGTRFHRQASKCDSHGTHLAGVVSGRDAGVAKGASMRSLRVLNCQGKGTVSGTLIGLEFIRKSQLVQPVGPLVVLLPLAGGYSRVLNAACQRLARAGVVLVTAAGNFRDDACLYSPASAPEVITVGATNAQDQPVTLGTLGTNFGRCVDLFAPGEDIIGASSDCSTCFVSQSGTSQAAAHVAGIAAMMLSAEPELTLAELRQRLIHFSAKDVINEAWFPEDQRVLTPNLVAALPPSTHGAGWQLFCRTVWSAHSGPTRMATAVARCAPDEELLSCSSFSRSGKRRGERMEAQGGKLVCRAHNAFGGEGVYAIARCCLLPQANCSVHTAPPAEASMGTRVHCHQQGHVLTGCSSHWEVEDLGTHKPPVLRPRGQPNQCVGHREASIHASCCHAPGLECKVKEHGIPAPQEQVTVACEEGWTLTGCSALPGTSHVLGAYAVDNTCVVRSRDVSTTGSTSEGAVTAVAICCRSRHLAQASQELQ

`Cn1c(=O)c2c(nc(NCCO)n2Cc2cccc(Br)c2)n(C)c1=O` showed an inhibition [1] of 34.2%.
Molecule `COc1cccc(Cn2c(NCCC3CCN(C)C3)nc3c2c(=O)n(C)c(=O)n3C)c1` (stereo not drawn) has an inhibition [1] of 16.7%.
`Cn1c(=O)c2c(nc(NCCO)n2Cc2c(F)cccc2F)n(C)c1=O` gave an inhibition [1] of 91%.
Molecule `Cn1c(=O)c2c(nc(NCCO)n2Cc2cccc(OC(F)(F)F)c2)n(C)c1=O` has an inhibition [1] of 84.7%.
`COc1cccc(Cn2c(NC[C@H](C)O)nc3c2c(=O)n(C)c(=O)n3C)c1` gave an inhibition [1] of 68.9%.
In the case of `COCCNc1nc2c(c(=O)n(C)c(=O)n2C)n1Cc1cccc(OC)c1`, the inhibition [2] is reported as “Active”, the Activity (Mus musculus [3]) is reported as “Active” and the Activity [4] is reported as “Non-Toxic”. For the same molecule, the inhibition (Mus musculus [5]) was “Active”, the inhibition (Mus musculus [6]) was “Active” and the Activity (Mus musculus [7]) was “Active”. For the same molecule, the Activity (Mus musculus [8]) was “Active”, the CC50 at 24 h [9] was greater than 200 µM and the inhibition [10] was “Active”. The inhibition [11] was “inactive”, the inhibition [12] was “Dose-Dependent Effect” and the inhibition [13] was “inactive”. For the same molecule, the Activity [14] was “Non-Toxic”, the inhibition [1] was 85.7% and the inhibition [15] was “Active”. For the same molecule, the Activity [16] was “Non-Toxic”, the inhibition [17] was “Active” and the inhibition [18] was “Active”. The inhibition [19] was “Dose-Dependent Effect”, the Activity (Mus musculus [20]) was “Active” and the fold change (FC) [21] was 1.7. For the same molecule, the Activity (Mus musculus [22]) was “Active”, the selectivity ratio [23] was greater than 31.3 and the Activity (Mus musculus [24]) was “Active”. The inhibition [25] was “Dose-Dependent Effect”, the Activity (Mus musculus [26]) was “Active” and the LD50 at 168 h [27] was greater than 1000 mg/kg.
`COc1cccc(Cn2c(Nc3cccc(O)c3)nc3c2c(=O)n(C)c(=O)n3C)c1` showed an inhibition [1] of -9.3%.
`COc1cccc(Cn2c(NCCN(C)C)nc3c2c(=O)n(C)c(=O)n3C)c1` showed an inhibition [1] of 19.6%.
`Cn1c(=O)c2c(nc(NCCO)n2CC(=O)c2ccccc2)n(C)c1=O` gave an inhibition [1] of 40.8%.
`Cc1ccccc1Cn1c(NCCO)nc2c1c(=O)n(C)c(=O)n2C` showed an inhibition [1] of 88.1%.
In the case of `Cn1c(=O)c2c(nc(NCCO)n2Cc2ccccc2Br)n(C)c1=O`, the inhibition [1] is reported as 53.3%.
Work on `COc1cccc(Cn2c(N[C@@H](CO)C(C)C)nc3c2c(=O)n(C)c(=O)n3C)c1` yielded an inhibition [1] of 18.9%.
`COc1cccc(Cn2c(NCCCCCCO)nc3c2c(=O)n(C)c(=O)n3C)c1` gave an inhibition [1] of 9%.
For `COc1cccc(Cn2c(NCC(O)CO)nc3c2c(=O)n(C)c(=O)n3C)c1` (stereo not drawn), the inhibition [1] was 11.6%.
In the case of `Cn1c(=O)c2c(nc(NCCO)n2Cc2ccccc2)n(C)c1=O`, the CC50 at 24 h [9] is reported as 85.5 µM, the inhibition [1] is reported as 80.4% and the selectivity ratio [23] is reported as 23.1.
Work on `COc1cccc(Cn2c(NCC(N)=O)nc3c2c(=O)n(C)c(=O)n3C)c1` yielded an inhibition [1] of 59.2%.
In the case of `Cn1c(=O)c2c(nc(NCCO)n2Cc2cccc(F)c2)n(C)c1=O`, the inhibition [1] is reported as 92.6%.
With `Cn1c(=O)c2c(nc(NCCO)n2Cc2cc(F)ccc2F)n(C)c1=O` the inhibition [1] was 79.9%.
Molecule `COc1cccc(Cn2c(N3CCOCC3)nc3c2c(=O)n(C)c(=O)n3C)c1` has an inhibition [1] of 16.3%.
Work on `COc1cccc(Cn2c(N[C@@H](C)CO)nc3c2c(=O)n(C)c(=O)n3C)c1` yielded an inhibition [1] of 81%.
Molecule `COc1ccc(Cn2c(NCCO)nc3c2c(=O)n(C)c(=O)n3C)cc1OC` has an inhibition [1] of 16.2%.
Work on `COc1cccc(Cn2c(NC[C@@H](C)O)nc3c2c(=O)n(C)c(=O)n3C)c1` yielded a CC50 at 24 h [9] of 89.2 µM, an inhibition [1] of 81.7% and a selectivity ratio [23] of 22.9.
Work on `Cn1c(=O)c2c(nc(NCCO)n2Cc2ccc(Cl)cc2)n(C)c1=O` yielded an inhibition [1] of 47%.
